This note sets out measurements from patent US20200338125A1, “METHOD FOR EXPANSION OF LYMPHOCYTES” (LUDWIG INSTITUTE FOR CANCER RESEARCH LTD, priority 2017, published 2020).

The assay relates to TILs of patient CTE-0009. The assay can be described thus: IFNγ-ELISPOT of TILs from draining lymph nodes, patient CTE-0009. The assay is classed as cell-based, human. The conditions noted are these: FIG. 5; day 14; conventional and primed cultures from draining lymph nodes. How it is done: Both “conventional” and “primed” TILs of patient CTE-0009 were generated from a single cell suspension of draining lymph nodes, following the methods described herein. Each culture was interrogated at day 14 by IFNγ-ELISPOT for the presence of neo-antigen T cell reactivities directed against one of the 4 predicted peptides and against the corresponding wild-type (wt) peptides. […] PHA was used at 1 μg/ml.
T cell reactivity against predicted neo-antigens was tested by IFNγ ELISpot on pre-REP TILs. Positivity was confirmed in ≥2 independent experiments.

As for TPINPRRCL [wt], the “neo-antigen T cell reactivities directed against the peptide” value is recorded as “not”.
